Assay results from publication PMC9763021, “Comprehensive Assessment of Biomolecular Interactions of Morpholine-Based Mixed Ligand Cu(II) and Zn(II) Complexes of 2,2′-Bipyridine as Potential Anticancer and SARS-CoV-2 Agents: A Synergistic Experimental and Structure-Based Virtual Screening” (Bioinorganic Chemistry and Applications, 2022).

Columns and labels:
Format in all cases: cell-based
[1] = test system: Staphylococcus aureus; experiment: Agar disc diffusion, strain F; set-up: (inhibition %): concentration or dose not given beside the values
Method: (§1) In-vitro antimicrobial properties were evaluated for all samples by the agar disc diffusion method towards different fungal and bacterial strains. Additionally, the reported inhibition zone values were comparatively analyzed with the standard antifungal drugs ketoconazole and amphotericin B as well as the standard antibiotic medications streptomycin and amikacin.
(§2) The current research has a curious focus on the in vitro antimicrobial properties of biological systems because these studies are crucial for developing effective antibacterial and antifungal medications. […] It can also be spelled out based on the chelation theory proposed by Overtone and Tweedy. Chelation theory points out that the partial exchanging of the positive charge of the metal center with donor moieties, and overlap of the ligand orbitals will reduce the greater degree of the metal ion's polarity, which ultimately rises the delocalization of π and d electrons over the full chelated ring system. By raising the size of the metal ion due to the retarding of polarization, chelation may also enhance the complexes' lipophilic characteristics, which further stimulate the lipid membrane permeability and break down the bacteria' enzymes responsible for cell wall formation, therefore slowing down the regular cell processes. By preventing the production of cell walls/proteins/DNA, including by obstructing folate metabolism and the cytoplasmic membrane, antimicrobial drugs frequently either fully eliminate microbes or only prevent their cell growth. Additionally, the samples' mode of action may be employed in disrupting the cell's respiration process by forming an H-bond during the morpholine-fused iminic group coordinated with the active metal center of its components, inhibiting proliferation of the cell. […] The difference in the antimicrobial efficacy of some of the compounds towards various microorganisms influences on the impermeability of the cells of the germs or the diversity of ribosomes of the microbes. The % of the inhibition of all substances is estimated from (45) (Table 9).
(§3) (A, B, C, D, and E are represented as gram negative bacteria species Escherichia coli, Salmonella enteric serovar typhi, Salmonella enteric serovar typhi, Pseudomonas aeruginosa, and Shigella flexneri, respectively. F & G are denoted as gram positive bacteria species Staphylococcus aureus and Bacillus cereus. H, I, and J are represented as fungal strains Aspergillus niger, Candida albicans, and Mucor indicus. Standard drugs for bacterial strains: Amikacin & Streptomycin Standard drugs for fungal strains: Ketoconazole and Amphotericin B. [Control (DMSO) = 6 mm].(44) Inhibition %=T–C/T×100, where T and C are represented as the diameter of microbial growth of the sample plates and the control plate (6 mm), respectively. Error limits ±2.5–5.0% (P ≤ 0.05).

[2] = test system: Salmonella enteric serovar typhi; experiment: Agar disc diffusion, strain C
Method: as §1, §2, §3

[3] = test system: Escherichia coli; experiment: Agar disc diffusion, strain A; set-up: (inhibition %): concentration or dose not given beside the values
Method: as §1, §2, §3

[4] = test system: Pseudomonas aeruginosa; experiment: Agar disc diffusion, strain D; set-up: (inhibition %): concentration or dose not given beside the values
Method: as §1, §2, §3

[5] = test system: Shigella flexneri; experiment: Agar disc diffusion, strain E; set-up: (inhibition %): concentration or dose not given beside the values
Method: as §1, §2, §3

[6] = test system: Bacillus cereus; experiment: Agar disc diffusion, strain G; set-up: (inhibition %): concentration or dose not given beside the values
Method: as §1, §2, §3

[7] = test system: Salmonella enteric serovar typhi; experiment: Agar disc diffusion, strain B
Method: as §1, §2, §3

[8] = test system: Mucor indicus; experiment: Agar disc diffusion, strain J; set-up: (inhibition %): concentration or dose not given beside the values
Method: as §1, §2, §3

[9] = test system: Candida albicans; experiment: Agar disc diffusion, strain I; set-up: (inhibition %): concentration or dose not given beside the values
Method: as §1, §2, §3

[10] = test system: Aspergillus niger; experiment: Agar disc diffusion, strain H; set-up: (inhibition %): concentration or dose not given beside the values
Method: as §1, §2, §3

For `[H]/N=C(/N)N[C@H]1[C@H](O)[C@@H](O)[C@H](O[C@@H]2O[C@@H](C)[C@](O)(C=O)[C@H]2O[C@@H]2O[C@@H](CO)[C@H](O)[C@@H](O)[C@@H]2NC)[C@@H](N/C(N)=N\[H])[C@@H]1O` [Streptomycin, reference compound], the “(inhibition %)” value [1] was 71%, the “diameter of the clear zone inhibition” value ([1]; control = 6 mm) was 21 mm and the “(inhibition %)” value [2] was 75%. For the same compound, the “diameter of the clear zone inhibition” value ([2]; control = 6 mm) was 24 mm, the “(inhibition %)” value ([3]; (T–C)/T×100) was 75% and the “diameter of the clear zone inhibition” value ([3]; control (DMSO) = 6 mm) was 24 mm. The “(inhibition %)” value [4] was 71%, the “diameter of the clear zone inhibition” value ([4]; control = 6 mm) was 21 mm and the “(inhibition %)” value [5] was 76%. For the same compound, the “diameter of the clear zone inhibition” value ([5]; control = 6 mm) was 25 mm, the “(inhibition %)” value [6] was 71% and the “diameter of the clear zone inhibition” value ([6]; control = 6 mm) was 21 mm. The “(inhibition %)” value [7] was 77% and the “diameter of the clear zone inhibition” value ([7]; control = 6 mm) was 26 mm.
For `C[C@@H]1[C@H](O)[C@@H](C)/C=C/C=C/C=C/C=C/C=C/C=C/C=C/[C@H](O[C@@H]2O[C@H](C)[C@@H](O)[C@H](N)[C@@H]2O)C[C@@H]2O[C@](O)(C[C@@H](O)C[C@@H](O)[C@H](O)CC[C@@H](O)C[C@@H](O)CC(=O)O[C@H]1C)C[C@H](O)[C@H]2C(=O)O` [Amphotericin B, reference compound], the “(inhibition %)” value [8] was 65%, the “diameter of the clear zone inhibition” value ([8]; control = 6 mm) was 17 mm and the “(inhibition %)” value [9] was 65%. For the same compound, the “diameter of the clear zone inhibition” value ([9]; control = 6 mm) was 17 mm, the “(inhibition %)” value [10] was 60% and the “diameter of the clear zone inhibition” value ([10]; control = 6 mm) was 15 mm.
